Measurements as given in the supplement of paper PMC10307832.

What was measured:
Experiment in all cases: relative viability (nuclei count vs DMSO), 5 days (fraction); higher = more cells survive
[1] = compound: COc1cc2ncn(-c3cc(OCc4ccccc4C(F)(F)F)c(C(N)=O)s3)c2cc1OC + Cc1cc(Nc2cc(N3CCN(C)CC3)nc(Sc3ccc(NC(=O)C4CC4)cc3)n2)n[nH]1 [Tozasertib] (partner 0.1 µM)
In short: (§1)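 After 5 days of treatment, lung cancer cells in 1536-well plates were fixed and stained in a single step (final 0.05% Triton X-100, 1% formaldehyde, 1 ug/ml Hoechst) and their nuclei counted on 4× images. Treatment had been applied by pin tool the day after seeding as one drug alone or as a fixed anchor-drug dose with five library-drug doses (not always all listed) in √10 steps. Relative viability is the nuclei count of treated wells divided by that of vehicle wells, and values are medians of duplicate plates.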

[2] = compound: COc1cc2ncn(-c3cc(OCc4ccccc4C(F)(F)F)c(C(N)=O)s3)c2cc1OC + COc1cc2c(Oc3ccc(NC(=O)C4(C(=O)Nc5ccc(F)cc5)CC4)cc3F)ccnc2cc1OCCCN1CCOCC1 [Foretinib] (partner 0.25 µM)
In short: as §1

[3] = compound: COc1cc2ncn(-c3cc(OCc4ccccc4C(F)(F)F)c(C(N)=O)s3)c2cc1OC + CCNC(=O)c1noc(-c2cc(C(C)C)c(O)cc2O)c1-c1ccc(CN2CCOCC2)cc1 [Luminespib] (partner 0.01 µM)
In short: as §1

[4] = compound: COc1cc2ncn(-c3cc(OCc4ccccc4C(F)(F)F)c(C(N)=O)s3)c2cc1OC + NC(=O)Nc1cc(-c2cccc(F)c2)sc1C(=O)N[C@H]1CCCNC1 [AZD7762] (partner 0.2 µM)
In short: as §1

Row | Cell Line | relative viability ([1]; first compound 0.05 µM) | relative viability ([1]; first compound 0.1581 µM) | relative viability ([1]; first compound 0.5 µM) | relative viability ([1]; first compound 1.581 µM) | relative viability ([1]; first compound 5 µM) | relative viability ([2]; first compound 0.05 µM) | relative viability ([2]; first compound 0.1581 µM) | relative viability ([2]; first compound 0.5 µM) | relative viability ([2]; first compound 1.581 µM) | relative viability ([2]; first compound 5 µM) | relative viability ([3]; first compound 0.05 µM) | relative viability ([3]; first compound 0.1581 µM) | relative viability ([3]; first compound 0.5 µM) | relative viability ([3]; first compound 1.581 µM) | relative viability ([3]; first compound 5 µM) | relative viability ([4]; first compound 0.05 µM) | relative viability ([4]; first compound 0.1581 µM) | relative viability ([4]; first compound 0.5 µM) | relative viability ([4]; first compound 1.581 µM) | relative viability ([4]; first compound 5 µM)
1 | NCI-H2170 | 0.619 | 0.745 | 0.309 | 0.193 | 0.26 | 0.942 | 0.985 | 0.468 | 0.269 | 0.202 | 0.4 | 0.845 | 0.415 | 0.189 | 0.177 | 0.889 | 0.765 | 0.306 | 0.146 | 0.166
2 | NCI-H2342 | 0.611 | 0.54 | 0.333 | 0.334 | 0.337 | 1.13 | 0.951 | 0.876 | 0.475 | 0.567 | 0.757 | 0.752 | 0.715 | 0.597 | 0.545 | 0.593 | 0.476 | 0.374 | 0.38 | 0.425
3 | NCI-H2347 | 0.464 | 0.622 | 0.264 | 0.372 | 0.363 | 0.966 | 0.916 | 0.98 | 0.651 | 0.428 | 0.522 | 0.303 | 0.419 | 0.346 | 0.465 | 0.832 | 0.726 | 0.716 | 0.435 | 0.393
4 | NCI-H2405 | 0.88 | 0.803 | 0.368 | 0.325 | 0.327 | 0.998 | 0.817 | 0.531 | 0.359 | 0.361 | 0.76 | 0.601 | 0.341 | 0.283 | 0.338 | 0.793 | 0.703 | 0.446 | 0.262 | 0.263
5 | NCI-H3122 | 0.359 | 0.392 | 0.211 | 0.286 | 0.284 | 0.976 | 0.93 | 0.241 | 0.123 | 0.148 | 0.0893 | 0.0896 | 0.149 | 0.0746 | 0.0906 | 1.07 | 0.81 | 0.359 | 0.133 | 0.144
6 | PC-3 [JPC-3] | 0.892 | 0.856 | 0.4 | 0.33 | 0.369 | 0.96 | 0.992 | 0.402 | 0.238 | 0.233 | 0.66 | 0.712 | 0.486 | 0.221 | 0.19 | 0.833 | 0.741 | 0.597 | 0.238 | 0.252
7 | PC-14 | 0.649 | 0.715 | 0.525 | 0.163 | 0.354 | 0.934 | 0.929 | 0.784 | – | 0.629 | 0.15 | 0.303 | 0.189 | 0.159 | 0.133 | 0.371 | 0.405 | 0.334 | 0.113 | 0.0718
8 | RERF-LC-KJ | 0.476 | 0.646 | 0.247 | 0.248 | 0.257 | 0.957 | 0.901 | 0.791 | – | 0.625 | 1.31 | 1.24 | 0.373 | 0.306 | 0.268 | 1.01 | 1.59 | 0.849 | 0.761 | 0.814
9 | SW 900 | 0.685 | 0.661 | 0.277 | 0.253 | 0.244 | 0.857 | 0.818 | 0.7 | 0.41 | 0.169 | 0.183 | 0.165 | 0.205 | 0.171 | 0.16 | 0.575 | 0.538 | 0.565 | 0.279 | 0.156
